Source: patent US6194423A, “Fused isoquinolines as dopamine receptor ligands” (priority 1999, dated 2001)
“Also recorded” adds a separate entry of the source.

How the values were obtained:
[1] = biological target: T1, rat striatal D1 receptors (Rattus norvegicus, UniProt P18901); experiment: D1 receptor binding ([3H]SCH23390) in rat striatal homogenates; conditions: for D1 binding nH (Hill slope): competition against 3H-SCH23390
T1 construct: Frozen rat striata were homogenized; from tissue; host or cells: rat striatum (adult male Sprague Dawley), washed membrane homogenate
T1 sequence (P18901 whole entry): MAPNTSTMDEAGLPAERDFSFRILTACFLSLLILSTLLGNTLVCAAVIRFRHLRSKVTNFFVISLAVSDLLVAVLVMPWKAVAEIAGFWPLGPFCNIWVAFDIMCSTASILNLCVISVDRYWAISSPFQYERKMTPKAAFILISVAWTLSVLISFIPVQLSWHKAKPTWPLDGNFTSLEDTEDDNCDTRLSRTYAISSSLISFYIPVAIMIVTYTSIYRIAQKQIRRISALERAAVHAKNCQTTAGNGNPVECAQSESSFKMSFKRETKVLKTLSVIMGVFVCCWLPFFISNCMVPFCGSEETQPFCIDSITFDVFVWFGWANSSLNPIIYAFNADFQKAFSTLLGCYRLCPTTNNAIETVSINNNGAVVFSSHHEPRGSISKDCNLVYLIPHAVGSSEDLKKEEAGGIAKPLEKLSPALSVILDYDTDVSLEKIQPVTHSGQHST
Protocol: Dopamine receptor binding assays.
Data analysis for radioreceptor assays. […] Data were normalized by expressing the average dpm at each competitor concentration as a percentage of total binding.
Competition curves were analyzed by non linear regression to determine estimates for the K0.5 and Hill slope (nH). Data represent the mean and standard error from three independent assays for each test compound.

[2] = biological target: T2, primate D1A receptors expressed in C-6 glioma cells (Macaca mulatta, UniProt O77680); experiment: Adenylate cyclase (cAMP accumulation) assay in C-6-mD1A cell membranes; type: biochemical, rhesus macaque; conditions: for agonist activity / efficacy, in words: cloned primate D1A receptors in C-6 glioma cells, relative to dopamine
T2 construct: expressed in transfected cells; host or cells: C-6 glioma cells (C-6-mD1A), membranes
T2 sequence (O77680 whole entry): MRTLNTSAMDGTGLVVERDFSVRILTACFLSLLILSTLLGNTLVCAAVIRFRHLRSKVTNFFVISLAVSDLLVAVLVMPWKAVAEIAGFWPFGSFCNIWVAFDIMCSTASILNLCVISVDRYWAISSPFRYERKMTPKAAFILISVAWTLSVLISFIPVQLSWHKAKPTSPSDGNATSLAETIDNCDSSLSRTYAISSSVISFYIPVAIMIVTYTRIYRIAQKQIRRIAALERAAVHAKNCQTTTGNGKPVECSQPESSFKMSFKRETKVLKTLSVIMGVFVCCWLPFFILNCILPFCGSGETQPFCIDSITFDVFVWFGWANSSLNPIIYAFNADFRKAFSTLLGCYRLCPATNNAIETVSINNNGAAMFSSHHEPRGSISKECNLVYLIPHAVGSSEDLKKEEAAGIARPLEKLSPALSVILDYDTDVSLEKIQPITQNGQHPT
Protocol: Cell Cultures. C-6 glioma cells expressing the rhesus macaque D1 A receptor, (C-6-mD1A; Machida et al., 1992) were grown in DMEM-H medium containing 4,500 mg/L glucose, L-glutamine, 5% fetal bovine serum and […] G418 or 2 μg/mL puromycin. Cells were maintained in a humidified incubator at 37° C. with 5% CO2.
Membrane Preparation. Cells were grown in 75 cm^2 flasks until confluent. The cells were rinsed and lysed with 10 mL of ice cold hypoosmotic buffer (HOB) (5 mM Hepes, 2.5 mM MgCl2, 1 mM EDTA; pH 7.4) for 10 minutes at 4° C. Cells were then scraped from the flasks using a sterile cell scraper from Baxter (McGaw Park, Ill.). Flasks received a final rinse with 5 mL of HOB. The final volume of the cell suspension recovered from each flask was ca. 14 mL. Scraped membranes from several flasks were then combined. The combined cell suspension was homogenized (10 strokes), 14 mL at a time, using a 15 mL Wheaton Teflon-glass homogenizer. The cell homogenates were combined and spun at 43,000×g (Sorvall RC-5B/SS-34, Du Pont, Wilmington, Del.) at 4° C. for 20 min. The supernatant was removed, and the pellet was resuspended (10 strokes) in 1 mL of ice cold HOB for each original flask of cells homogenized. This homogenate was then spun again at 43,000×g at 4° C. for 20 min. The supernatant was removed and the final pellet was resuspended (10 strokes) in ice cold storage buffer (50 mM Hepes, 6 mM MgCl2, 1 mM EDTA; pH 7.4) to yield a final concentration of ca. 2.0 mg of protein/mL. Aliquots of the final homogenate were stored in microcentrifuge tubes at -80° C.
Adenylate cyclase assay in C-6mD1A cells. Frozen membranes were thawed and added to assay tubes (10 μg protein/tube) containing a prepared reaction mixture [100 TnM Hepes, (pH 7.4), 100 mM NaCl, 4 mM MgCl2, 2 mM EDTA, 500 μM isobutyl methylxanthine (IBMX), 0.01% ascorbic acid, 10 μM pargyline, 2 mM ATP, 5 μM GTP, 20 mM phosphocreatine, 5 units of creatine phosphokinase (CPK), 1 μM propranolol] and selected drugs. The final reaction volume was 100 μL.
Basal cAMP activity was determined by incubation of tissue in the reaction mixture with no drug added. Tubes were assayed in duplicate and, after a 15 min incubation at 30° C., the reaction was stopped by the addition of 500 μL of 0.1 N HCl. Tubes were vortexed briefly, and then spun in a BHG HermLe Z 230 M microcentrifuge for five min at 15,000×g to precipitate particulates.
Radioimmunoassay (RIA) of CAMP. The concentration of cAMP in each sample was determined with an RIA of acetylated cAMP, modified from that previously described. Iodination of cAMP was performed using a method reported by Patel and Linden. Assay buffer was 50 mM sodium acetate buffer with 0.1% sodium azide (pH 4.75). Standard curves of cAMP were prepared in buffer at concentrations of 2 to 500 fmol/assay tube. To improve assay sensitivity, all samples and standards were acetylated with 10 μl of a 2:1 solution of triethylamine:acetic anhydride. Samples were assayed in duplicate. Each assay tube (total volume 300 μL) contained 25 μL of each sample, 75 μL of buffer, 100 μL of primary antibody (sheep, anti-cAMP, 1:100,000 dilution with 1% BSA in buffer) and 100 μL of [^125 I]-cAMP (50,000 dpm/100 μL of buffer). Tubes were vortexed and stored at 4° C. overnight (approx. 18 h). Antibody-bound radioactivity was separated by the addition of 25 μL of BioMag rabbit, anti-goat IgG (Advanced Magnetics, Cambridge Mass.), followed by vortexing and incubation at 4° C. for 1 h. […]

[3] = biological target: D1 receptors; experiment: Adenylate cyclase activity (cAMP accumulation) in rat striatal homogenates; type: biochemical; conditions: rat striatum; for agonist activity / efficacy, in words: relative to dopamine
Protocol: Adenylate cyclase activity in rat striatum. The automated HPLC method of Schulz and Mailman was used to measure adenylate cyclase activity by separating cAMP from other labeled nucleotides. […] Triplicate determinations were performed for each drug concentration.
The reaction proceeded for 15 min at 30° C. and was terminated by the addition of 100 μL of 3% sodium dodecyl sulfate (SDS). […] Samples were centrifuged (10,000×g for 8-9 min), and the supernatants injected on an HPLC system (Waters Z-module or RCM 8×10 module equipped with a C18, 10 micron cartridge). […] The radioactivity in each fraction was determined by a flow-through radiation detector (Inus Systems, Tampa, Fla.) using Cerenkov counting. Sample recovery was based on UV measurement of total unlabeled CAMP peak areas quantified using PE Nelson (Cupertino, Calif.) Model 900 data collection modules and TurboChrom software.
Data analysis for adenylate cyclase studies. Data for each sample were expressed initially as pmol/mg/min cAMP. Baseline values of cAMP were subtracted from the total amount of cAMP produced in each drug condition. Data for each drug were expressed relative to the stimulation produced by 100 μM DA.

[4] = test system: D1 receptor; conditions: cited from earlier work
[5] = biological target: D2 receptors (Rattus norvegicus, UniProt P61169)
D2 receptors, sequence (P61169 whole entry): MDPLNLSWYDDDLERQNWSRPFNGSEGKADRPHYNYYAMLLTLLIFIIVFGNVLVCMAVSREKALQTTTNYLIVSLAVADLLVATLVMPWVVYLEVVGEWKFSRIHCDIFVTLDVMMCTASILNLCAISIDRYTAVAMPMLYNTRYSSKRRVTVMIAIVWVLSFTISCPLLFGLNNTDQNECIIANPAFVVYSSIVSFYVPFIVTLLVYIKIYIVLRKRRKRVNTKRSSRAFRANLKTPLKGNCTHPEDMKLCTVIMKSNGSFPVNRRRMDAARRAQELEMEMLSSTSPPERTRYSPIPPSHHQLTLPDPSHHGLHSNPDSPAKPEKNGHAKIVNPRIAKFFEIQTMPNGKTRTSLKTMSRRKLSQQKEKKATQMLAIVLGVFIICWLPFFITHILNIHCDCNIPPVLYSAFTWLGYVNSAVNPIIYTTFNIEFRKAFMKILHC

[6] = test system: MPTP-treated monkey; conditions: MPTP-treated monkey model; cited from earlier work

Row | Structure (SMILES) | D1 binding nH (Hill slope) ([1]; rat striatal homogenates) | agonist activity / efficacy, in words [2] | agonist activity / efficacy, in words [3] | intrinsic efficacy at D1 receptor, in words [4] | also measured
1 | Oc1ccc2c(c1O)Cc1cccc3c1C2CNC3 (racemic) [dinapsoline, (±)-8,9-dihydroxy-2,3,7,11b-tetrahydro-1H-naphtho[1,2,3-de] isoquinoline] | 0.66 | full efficacy; also recorded: full agonist activity; also recorded: full agonist relative to dopamine | full agonist activity; also recorded: full agonist relative to dopamine | – | slope of D1 competition curve, in words ([1]; FIG. 3): shallow competition curve; also recorded: shallower slopes; D1 affinity, in words ([1]; compared with dihydrexidine, rat striatal homogenates, FIG. 3): high affinity for dopamine D1 receptors; also recorded: almost identical affinity as dihydrexidine; D1 binding nH (Hill slope) ([1]; rat striatal homogenates, listed as (±)-4): 0.66 ± 0.01; EC50 ([2]; C-6-mD1 cells, average of two experiments in duplicate, read-out: EC50 in stimulating synthesis of cAMP via D1 receptors): ~30 nM; EC50 ([3]; read-out: EC50 in stimulating synthesis of cAMP via D1 receptors): ~30 nM
2 | Oc1cc2c(cc1O)C(c1ccccc1)CNCC2 (single isomer, unassigned) [SKF 38393] | 0.75 ± 0.08 | partial agonist | partial agonist | generally lacked full intrinsic efficacy | agonist activity / efficacy, in words ([2]; listed as (+)-2): only of partial efficacy
3 | Oc1cc2c(cc1O)[C@H]1c3ccccc3CN[C@@H]1CC2 [6aR,12bS] | – | – | – | high affinity full agonist at the D1 receptor | –
4 | CN(C)CCCN1c2ccccc2Sc2ccc(Cl)cc21 [Chlorpromazine] | – | – | – | – | D2 binding nH (Hill slope) ([5]; competition against 3H-spiperone, rat striatal homogenates): 0.93 ± 0.01
5 | NC[C@@H]1O[C@H](C23CC4CC(CC(C4)C2)C3)Cc2c1ccc(O)c2O [Example A-77636] | – | – | – | – | anti-parkinsonian effects [6]: exceptional anti-parkinsonian effects
6 | CN1CCc2cc(Cl)c(O)cc2[C@@H](c2ccccc2)C1 [SCH23390] | 1.05 ± 0.01 | – | – | – | –
7 | C=CCN1CCc2c(cc(O)c(O)c2Cl)C(c2ccccc2)C1 (stereo not drawn) [SKF 82958] | – | – | – | not to have full intrinsic efficacy in preparations with decreased receptor reserve | –
8 | Oc1cc2c(cc1O)[C@H]1c3ccccc3CN[C@@H]1CC2 [dihydrexidine, (+)-trans-10,11-dihydroxy-5,6,6a,7,8,12b-hexahydrobenzo[a]phenanthridine] | 0.65 ± 0.01 | full efficacy; also recorded: full agonist relative to dopamine | full agonist relative to dopamine | – | slope of D1 competition curve, in words ([1]; FIG. 3): shallower slopes; anti-parkinsonian effects [6]: exceptional anti-parkinsonian effects; slope of D2 competition curve, in words ([5]; FIG. 6, compared with chlorpromazine): shallower than for the prototypical D2 antagonist chlorpromazine
